Assay results taken from patent US20250171460A1, “INDUCERS OF KLF2 AND METHODS OF USE THEREOF” (Riparian Pharmaceuticals, Inc., priority 2022, published 2025).
Like-named read-outs stand apart in the source and are kept apart here.

Test system: primary human endothelial cells expressing luciferase under the control of the KLF2 promoter
Test: KLF2 Induction Cell Based Bioassay (luciferase reporter)
Details: Homo sapiens, Endothelial cell
Procedure, shortened: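 Reporter cells dosed with 11-point 1:2 series (≤1% DMSO) for 24 h at 37 °C. Secreted Gaussia luciferase in supernatant read as luminescence after injection of 50 μM coelenterazine; signals normalized to DMSO and maximal reference-compound response, EC50 where curve crosses 0.5.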

[1] = 24 h, KLF2 promoter luciferase, 24 hours, 11-point concentration response, read-out: Activity Range (EC50)
[2] = Bioactivity of stereoisomers: R isomer, read-out: Bioactivity Bucket, R

Row | Structure (SMILES) | EC50 [1] | EC50 [2]
1 | COc1cc(F)ccc1CNC(=O)C1(C)COc2c(oc3cc(C(=O)NC4CCC4)ccc23)C(=O)N1[C@H]1C[C@@H](OC)C1 (stereo partly shown) [Example 71] | 0.051 to 0.5 µM | 
2 | COCCN1C(=O)c2oc3cc(C(=O)NC4(C)COC4)ccc3c2OCC1(C)C(=O)NCc1ccc(F)cc1OC (stereo not shown) [Example 76] | 0.051 to 0.5 µM | 
3 | [2H]C([2H])([2H])N(C(=O)CN1C(=O)c2oc3ccc(Cl)cc3c2OCC1(C)C(=O)NCc1ncccc1OC(C)C)C([2H])([2H])[2H] (stereo not shown) [Example 110] | 0.501 to 5 µM | 
4 | COc1ccccc1CNC(=O)C1(C)COc2c(oc3ccccc23)C(=O)N1CC1(F)CCC1 (stereo not shown) [Example 2] | 0.501 to 5 µM | 
5 | COc1cccc(C#N)c1CNC(=O)C1(C)COc2c(oc3cc(C(=O)NC4(C)COC4)ccc23)C(=O)N1[C@H]1C[C@@H](OC)C1 (stereo partly shown) [Example 55] | 0.051 to 0.5 µM | 
6 | COc1ccccc1CNC(=O)C1(C)COc2c(oc3ccc(F)cc23)C(=O)N1CC(=O)C1CC1 (stereo not shown) [Example 113, 4-(2-cyclopropyl-2-oxoethyl)-9-fluoro-N-(2-methoxybenzyl)-3-methyl-5-oxo-2,3,4,5-tetrahydrobenzofuro[2,3-f][1,4]oxazepine-3-carboxamide] | 0.051 to 0.5 µM | 
7 | COCCN1C(=O)c2oc3ccccc3c2OCC1(C)C(=O)NCc1c(Cl)cccc1OC (stereo not shown) [Example 24] | 0.501 to 5 µM | 
8 | COc1ccc(F)cc1CNC(=O)C1(C)COc2c(oc3cc(C(=O)NC4CCC4)ccc23)C(=O)N1CC1CC1 (stereo not shown) [Example 92] | ≤ 0.05 µM | 
9 | C/C=C/CN1C(=O)c2oc3ccccc3c2OCC1(C)C(=O)NCc1ccccc1OC (stereo not shown) [Example 9] | 0.501 to 5 µM | 
10 | COCCN1C(=O)c2oc3ccccc3c2OCC1(C)C(=O)NCc1c(Cl)cc(F)cc1OC (stereo not shown) [Example 48] | 0.501 to 5 µM | 
11 | COc1cccc(F)c1CNC(=O)C1(C)COc2c(oc3cc(C(=O)NC4(C)COC4)ccc23)C(=O)N1CC1CC1 (stereo not shown) [Example 89] | ≤ 0.05 µM | 
12 | COc1cccc(Cl)c1CNC(=O)C1(C)COc2c(oc3cc(C(=O)NC4CCC4)ccc23)C(=O)N1CC1CC1 (stereo not shown) [Example 87] | ≤ 0.05 µM | 
13 | COCCN1C(=O)c2oc3ccccc3c2OCC1(C)C(=O)NCc1cc(F)ccc1OC (stereo not shown) [Example 38] | 0.501 to 5 µM | 
14 | COc1ccc(F)cc1CNC(=O)C1(C)COc2c(oc3cc(C(=O)NC4CCC4)ccc23)C(=O)N1[C@H]1C[C@H](OC)C1 (stereo partly shown) [Example 80] | 0.501 to 5 µM | 
15 | [2H]C([2H])([2H])N(C(=O)CN1C(=O)c2oc3ccc(Cl)cc3c2OC[C@]1(C)C(=O)NCc1c(F)cccc1OC)C([2H])([2H])[2H] [Example 102, (R)-4-(2-(bis(methyl-d3)amino)-2-oxoethyl)-9-chloro-N-(2-fluoro-6-methoxybenzyl)-3-methyl-5-oxo-2,3,4,5-tetrahydrobenzofuro[2,3-f][1,4]oxazepine-3-carboxamide] | 0.051 to 0.5 µM | 0.051 to 0.5 µM
16 | COCCN1C(=O)c2oc3cc(C(=O)NC4CCC4)ccc3c2OCC1(C)C(=O)NCc1c(OC)ccc(F)c1F (stereo not shown) [Example 61] | 0.051 to 0.5 µM | 
17 | COCCN1C(=O)c2oc3cc(C(=O)NC4(C)COC4)ccc3c2OC[C@]1(C)C(=O)NCc1c(F)cccc1OC [Example 79] | 0.051 to 0.5 µM | 0.051 to 0.5 µM
